Assay results reported in PubChem BioAssay AID200 (DTP/NCI, 2004).
Values joined by “and” are separate entries in the source; they are usually repeats but may differ in a detail not shown here. Equal entries are not always repeated. Toxic doses and inconclusive results are not listed. Where a SMILES comes first, the peptide text is derived from it.

Test system: B6C3F1 mice, B16 melanoma ip, median survival T/C
Assay: NCI In Vivo Anticancer Drug Screen. Data for tumor model B16 Melanoma (intraperitoneal) in B6C3F1 mice
Settings: endpoint: median survival time, schedule: Q01DX009 (ip), higher = longer survival
Procedure: The antitumor activity of compounds was measured in mice bearing transplantable tumors. Survival or tumor size were measured and the results are expressed as the measurement made in the treated group (T) divided by the measurement made in the vehicle treated control group (C). The tumor model used in this assay is B16 Melanoma (intraperitoneal) in B6C3F1 mice

[1] = dose: 25.0 mg/kg/injection, vehicle: saline with Tween-80
[2] = dose: 50.0 mg/kg/injection, vehicle: saline with Tween-80
[3] = dose: 100.0 mg/kg/injection, vehicle: saline with Tween-80
[4] = dose: 200.0 mg/kg/injection, vehicle: saline with Tween-80
[5] = dose: 50.0 mg/kg/injection, vehicle: Klucel (hydroxypropylcellulose) (HPC)
[6] = dose: 100.0 mg/kg/injection, vehicle: Klucel (hydroxypropylcellulose) (HPC)
[7] = dose: 200.0 mg/kg/injection, vehicle: Klucel (hydroxypropylcellulose) (HPC)

COC(=O)[C@@]12OC[C@]34[C@H]([C@@H](O)[C@@H]1O)[C@@]1(C)CC(=O)C(O)=C(C)[C@@H]1C[C@H]3OC(=O)[C@H](OC(=O)CC(C)C)[C@@H]24
T/C (dose: 1.0 mg/kg/injection, vehicle: saline + alcohol): 156 % of control and 157 % of control | T/C (dose: 2.0 mg/kg/injection, vehicle: saline + alcohol): 180 % of control

COc1cccc(C2NC(=O)c3c(n[nH]c3N)S2)c1O (centres undefined)
T/C (dose: 12.5 mg/kg/injection, vehicle: saline with Tween-80): 101 % of control | T/C [1]: 106 % of control | T/C [2]: 104 % of control | T/C [3]: 107 % of control | T/C [4]: 95 % of control

NC(=S)N/N=C/c1ccc(O)cn1
T/C (dose: 12.5 mg/kg/injection, vehicle: suspension in saline): 106 % of control | T/C (dose: 25.0 mg/kg/injection, vehicle: suspension in saline): 113 % of control | T/C (dose: 50.0 mg/kg/injection, vehicle: suspension in saline): 119 % of control | T/C (dose: 100.0 mg/kg/injection, vehicle: suspension in saline): 118 % of control

Nc1ccc2ccc(NS(=O)(=O)N3CCCCC3)cc2c1
T/C [1]: 110 % of control | T/C [2]: 98 % of control | T/C [3]: 111 % of control | T/C [4]: 107 % of control

Cc1cc(Br)c2nsnc2c1[N+](=O)[O-]
T/C [1]: 95 % of control | T/C [2]: 95 % of control | T/C [3]: 103 % of control | T/C [4]: 90 % of control

C=C1C(C)C2C(Cc3ccccc3)NC(=O)C23C(OC(C)=O)/C=C/C(C)(O)CC(C)C/C=C/C3C1O (centres undefined)
T/C (dose: 0.37 mg/kg/injection, vehicle: Klucel (hydroxypropylcellulose) (HPC)): 112 % of control and 99 % of control | T/C (dose: 0.75 mg/kg/injection, vehicle: Klucel (hydroxypropylcellulose) (HPC)): 110 % of control and 100 % of control and 101 % of control | T/C (dose: 1.5 mg/kg/injection, vehicle: Klucel (hydroxypropylcellulose) (HPC)): 115 % of control and 98 % of control and 103 % of control | T/C (dose: 1.56 mg/kg/injection, vehicle: saline with Tween-80): 124 % of control | T/C (dose: 3.0 mg/kg/injection, vehicle: Klucel (hydroxypropylcellulose) (HPC)): 112 % of control and 115 % of control and 105 % of control | T/C (dose: 3.13 mg/kg/injection, vehicle: saline with Tween-80): 111 % of control | T/C (dose: 6.0 mg/kg/injection, vehicle: Klucel (hydroxypropylcellulose) (HPC)): 103 % of control | T/C (dose: 6.25 mg/kg/injection, vehicle: saline with Tween-80): 113 % of control | T/C (dose: 12.0 mg/kg/injection, vehicle: Klucel (hydroxypropylcellulose) (HPC)): 103 % of control

ClCCCCCCCCCCc1ccccc1
T/C (dose: 12.5 mg/kg/injection, vehicle: Klucel (hydroxypropylcellulose) (HPC)): 91 % of control | T/C (dose: 25.0 mg/kg/injection, vehicle: Klucel (hydroxypropylcellulose) (HPC)): 94 % of control | T/C [5]: 91 % of control | T/C [6]: 93 % of control | T/C [7]: 90 % of control | T/C (dose: 400.0 mg/kg/injection, vehicle: Klucel (hydroxypropylcellulose) (HPC)): 89 % of control

O=c1[nH]cc(O)c(=O)[nH]1
T/C [5]: 102 % of control | T/C [6]: 96 % of control | T/C [7]: 103 % of control

CC(=O)Nc1ccc(N=Nc2c(O)c(S(=O)(=O)O)cc3cc(S(=O)(=O)O)ccc23)cc1
T/C [2]: 111 % of control | T/C [3]: 100 % of control | T/C [4]: 98 % of control

NCC(=O)NC(Cc1ccc(O)cc1)C(=O)O (centres undefined) (HELM PEPTIDE1{G.[O=C(O)C(Cc1ccc(O)cc1)N[*:1]]}$$$$V2.0)
T/C (dose: 100.0 mg/kg/injection, vehicle: saline): 110 % of control | T/C (dose: 200.0 mg/kg/injection, vehicle: saline): 123 % of control

C=C(C)C(=O)OCC12CCC(C)=CC1OC1C(O)C(OC(=O)CCl)C2(C)C12CO2 (centres undefined)
T/C (dose: 0.5 mg/kg/injection, vehicle: water): 163 % of control | T/C (dose: 1.0 mg/kg/injection, vehicle: water): 163 % of control | T/C (dose: 2.0 mg/kg/injection, vehicle: water): 159 % of control

O=NNc1ccc(Cl)cn1
T/C (dose: 1.56 mg/kg/injection, vehicle: water): 118 % of control | T/C (dose: 3.13 mg/kg/injection, vehicle: water): 107 % of control | T/C (dose: 6.25 mg/kg/injection, vehicle: water): 115 % of control | T/C (dose: 12.5 mg/kg/injection, vehicle: water): 166 % of control and 168 % of control
